Data: patent US20210283163A1, “COMPOSITIONS AND METHODS FOR THE TREATMENT OF ACUTE AND CHRONIC PRURITIS” (Duke University, priority 2018, published 2021)

What was measured:
hTRPA1 [1] = biological target: T1, hTRPA1 (Homo sapiens, UniProt O75762); test: Whole-cell patch clamp, inward currents in HEK293 cells expressing hTRPA1; type: cell-based; details: peptide 25 μM
Experimental: (§1) Cell Culture and Transfection. CD4^+ Myla cell line was cultured in RPMI 1640 media (GIBCO), supplemented with 2 mM Glutamine (GIBCO), 100 U/mL IL-2 (Sigma), 100 U/mL IL-4 (Sigma), and 10% human AB serum (Sigma). HuT 102 cell line was cultured in RPMI 1640 supplemented with pyruvate, HEPES, and 10% (v/v) fetal bovine serum (HyClone). HEK293-hTRPA1 stable cell line was cultured in MEM (GIBCO) containing 2 mM Glutamine, 4 μg/mL Blasticidin, 10% FBS (v/v). B16 and CHO cells were cultured in high glucose (4.5 g/L) Dulbecco's Modified Eagle's Medium (GIBCO) containing 10% (v/v) fetal bovine serum (GIBCO). Culture media were supplemented with 50 units/mL of penicillin and 50 μg/mL streptomycin, and cultures were maintained with 5% CO2 in 37° C. incubator. Transfection (2 μg cDNA) was performed with Lipofectamine™ 2000 Reagent (Invitrogen) at 80% confluency and the transfected cells were cultured in the same media for 48 hr before electrophysiological and biochemical studies.
Whole-Cell Patch Clamp Recordings in HEK293 Cells, CHO Cells, and DRG Neurons. Whole-cell patch clamp recordings were performed at room temperature using an Axopatch-200B amplifier (Axon Instruments) with a Digidata 1440B (Axon Instruments). In this study, we only examined small-diameter mouse DRG neurons (<25 μM) and small-diameter human DRG neurons (<55 μM). The patch pipettes were pulled from borosilicate capillaries (World Precision Instruments) using a P-97 Flaming/Brown micropipette puller (Sutter Instrument). Pipette resistance was 4-6 MΩ for whole-cell and outside-out recording. For inward current recordings in mouse and human DRG neurons, HEK293 cells, and CHO cells, the internal solution contains (in mM): 140 CsCl, 10 EGTA, 10 HEPES, and 2 Mg-ATP, adjusted to pH 7.3 with CsOH. Whole cell recordings were performed in an extracellular solution that contains (in mM): 140 NaCl, 5 KCl, 2 MgCl2, 10 HEPES, and 10 glucose, adjusted to pH 7.4 with NaOH and osmolarity to 300-310 mOsm. […] Action potential recordings were performed in small-diameter DRG neurons, with the following solutions: i) internal pipette solution contains: 126 mM K-gluconate, 10 mM NaCl, 1 mM MgCl2, 10 mM EGTA, 10 mM HEPES and 2 mM Na-ATP, adjusted to pH 7.4 with KOH and osmolarity to 295-300 mOsm), and ii) extracellular solution contains: 140 mM NaCl, 5 mM KCl, 2 mM MgCl2, 2 mM CaCl2, 10 mM HEPES, 10 mM glucose, adjusted to pH 7.4 with KOH.

hTRPA1 [2] = biological target: T1, hTRPA1; test: RNA pull-down assay and immunoblotting; type: binding; details: RNA pull-down
Experimental: RNA Pull-Down Assay and Immunoblotting. hTRPA1-expressing HEK293 cells of equal amount (5×10^6) were plated onto 60 mm dishes, and 24 hr later, these cells were incubated with biotin-conjugated miR-711 or miR-711 (m6) in extracellular solution containing 140 mM NaCl, 5 mM KCl, 2 mM CaCl2, 1 mM MgCl2, 10 mM HEPES, and 10 mM glucose, adjusted to pH 7.4 for 15 min at 37° C. with 5% CO2. For crosslinking, 1% formaldehyde (vol/vol) was added at 37° C. for 10 min, then 12.5% glycine was applied to stop crosslinking by 5 min incubation at room temperature. Then the cells were collected and sonicated with ultrosonic probe sonicator (80% output, 5 s on and 10 s off) in 1 mL lysis buffer (1% Triton X-100, 50 mM Tris-HCl, 150 mM NaCl, 5 mM EDTA, pH7.4) on ice for 2 min. We then centrifuged the lysate at 13,000 rpm for 10 min at 4° C. and took 50 μL supernatant as lysate control. The remaining supernatant was added 20 μL streptadvilin agrose beads and incubated overnight. The pellets were collected after centrifuge at 6000 rmp for 30 s. For competing assay, miR-711 (10-50 μM) or mutant miR-711 (m6, 10-50 μM) were added 15 min before the incubation with biotin-conjugated miR-711 (10 μM). For immunoblotting, the lysates or beads were incubated in SDS-PAGE loading buffer for 30 min at 50° C., and supernatant was collected after centrifugation at 13000 rpm and decrosslink at 99° C. for 20 min. The samples were separated on an SDS-PAGE gel, transferred, and probed with TRPA1 antibody (1:1000; Alomone labs). The immunoreactive bands were detected with horseradish peroxidase-conjugated secondary antibody, visualized with enhanced chemiluminescence (Thermo scientific, Pittsburgh, Pa.), and quantified with Image-Pro Plus software (Media Cybernetics, Bethesda, Md.). Each experiment was repeated at least three times.

mice [3] = test: Acute pruritus induced by intradermal pruritogens, effect of peptides; type: in vivo, mouse; details: peptide 2 mM, 15 μL intradermal; mmu-miR-711 1 mM, 10 μL
Experimental: (§2) Behavioral Assessment for Scratching (Itch) and Wiping (Pain). Mice were shaved on the cheek or nape after a brief anesthesia with isoflurane. Before experiments, mice were habituated in small plastic chambers (14×18×12 cm) daily for two days. The room temperature and humidity remained stable for all the experiments. […] After the injection, the number of scratches in 60 min was counted. A scratch was counted when a mouse lifted its hind paw to scratch the shaved region and returned the paw to the floor or to the mouth. A bout of wiping was defined as a continuous wiping movement with a forepaw directing at the area of the injection area (Shimada and LaMotte, Pain 2008, 139, 681-687). Scratching and wiping behavior was videoed for 30 min or 60 min using Sony HDR-CX610 camera. The video was subsequently played back offline and the numbers of scratches and wipes were quantified in a blinded manner.

TRPV2 = biological target: T2, TRPV2 (Mus musculus, UniProt Q9WTR1); test: Whole-cell patch clamp in CHO cells transfected with mouse Trpv2 cDNA; type: cell-based; details: miR-711 10 μM; cannabidiol 100 μM
T2 construct: expressed in transfected cells; host or cells: CHO cells (ATCC CRL-9096), plasmid pcDNA3.1-mTrpv2, a gift from Korea University
T2 sequence (Q9WTR1 1-756): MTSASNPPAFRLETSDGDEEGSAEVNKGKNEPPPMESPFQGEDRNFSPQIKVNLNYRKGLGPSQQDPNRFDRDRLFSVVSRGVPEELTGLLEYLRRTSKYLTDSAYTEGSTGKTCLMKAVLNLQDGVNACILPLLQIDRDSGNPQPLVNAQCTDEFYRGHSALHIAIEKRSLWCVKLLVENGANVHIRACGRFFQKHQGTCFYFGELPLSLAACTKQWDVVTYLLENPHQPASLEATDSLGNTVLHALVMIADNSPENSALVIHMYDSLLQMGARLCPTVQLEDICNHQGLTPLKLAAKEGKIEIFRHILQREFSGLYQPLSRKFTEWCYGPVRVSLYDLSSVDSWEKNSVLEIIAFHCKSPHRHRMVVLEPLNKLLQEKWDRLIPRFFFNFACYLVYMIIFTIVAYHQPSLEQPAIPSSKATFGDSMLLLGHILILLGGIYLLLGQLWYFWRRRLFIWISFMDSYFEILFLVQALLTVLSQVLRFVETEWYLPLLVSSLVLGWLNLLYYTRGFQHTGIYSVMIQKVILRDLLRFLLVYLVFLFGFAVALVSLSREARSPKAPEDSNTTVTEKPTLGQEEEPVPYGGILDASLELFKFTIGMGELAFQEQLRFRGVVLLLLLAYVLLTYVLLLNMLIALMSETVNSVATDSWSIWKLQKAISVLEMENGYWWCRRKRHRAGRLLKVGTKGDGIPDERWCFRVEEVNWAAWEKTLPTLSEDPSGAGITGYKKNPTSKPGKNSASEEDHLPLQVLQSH
Experimental: (§3) Constructs. The cDNAs of mouse pcDNA3.1-Trpa1, pcDNA3.1-Trpv1, pcDNA3.1-Trpv2, pcDNA3.1-Trpv3, and pcDNA3.1-Trpv4 were kindly provided Dr. Sun Work Hwang from Korea University. Mouse Trpa1 cDNA was subcloned into pCGN-HA backbone (Addgene) using In-Fusion HD Cloning Kit (Clontech Laboratories, CA). Q5 Site-Directed Mutagenesis Kit was used to generate mTrpa1 mutant (M1-M13) based on pCGN-mTrpa1.
as §1, with “studies. […]” for “studies.”

TRPV4 = biological target: T3, TRPV4 (Mus musculus, UniProt Q9EPK8); test: Whole-cell patch clamp in CHO cells transfected with mouse Trpv4 cDNA; type: cell-based; details: miR-711 10 μM; GSK1016790A 1 μM
T3 construct: expressed in transfected cells; host or cells: CHO cells (ATCC CRL-9096), plasmid pcDNA3.1-mTrpv4, a gift from Korea University
T3 sequence (Q9EPK8 whole entry): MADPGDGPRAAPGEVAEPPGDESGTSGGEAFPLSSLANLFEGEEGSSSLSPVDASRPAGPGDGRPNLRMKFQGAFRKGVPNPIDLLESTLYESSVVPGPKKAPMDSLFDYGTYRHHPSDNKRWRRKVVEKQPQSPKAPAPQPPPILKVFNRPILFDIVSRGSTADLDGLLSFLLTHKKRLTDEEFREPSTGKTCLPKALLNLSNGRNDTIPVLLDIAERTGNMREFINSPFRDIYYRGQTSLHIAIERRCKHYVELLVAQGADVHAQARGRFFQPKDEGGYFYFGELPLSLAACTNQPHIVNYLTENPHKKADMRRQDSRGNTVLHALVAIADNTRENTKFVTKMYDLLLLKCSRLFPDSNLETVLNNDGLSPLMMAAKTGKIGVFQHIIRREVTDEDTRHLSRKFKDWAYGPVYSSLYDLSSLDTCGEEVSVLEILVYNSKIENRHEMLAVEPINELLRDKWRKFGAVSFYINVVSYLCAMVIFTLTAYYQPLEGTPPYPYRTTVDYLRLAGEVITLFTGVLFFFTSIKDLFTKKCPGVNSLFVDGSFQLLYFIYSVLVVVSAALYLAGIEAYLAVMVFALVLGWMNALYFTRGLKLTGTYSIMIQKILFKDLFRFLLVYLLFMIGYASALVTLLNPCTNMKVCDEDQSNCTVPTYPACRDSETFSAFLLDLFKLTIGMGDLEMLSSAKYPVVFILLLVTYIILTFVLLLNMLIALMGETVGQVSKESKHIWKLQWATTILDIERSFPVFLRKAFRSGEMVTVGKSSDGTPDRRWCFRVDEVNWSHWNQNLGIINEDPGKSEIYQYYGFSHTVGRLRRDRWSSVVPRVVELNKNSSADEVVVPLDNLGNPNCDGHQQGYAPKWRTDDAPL
Experimental: as §3
as §1, with “studies. […]” for “studies.”

mice [4] = test: Evans blue extravasation, neurogenic inflammation in a hind paw; type: in vivo, mouse; details: intraplantar, 10 μL; capsaicin 1 mM, AITC 5 mM, miR-711 1 mM
Experimental: Evans Blue Extravasation. To examine neurogenic inflammation in a hind paw (Han et al., Neuron 2016, 92, 1279-1293), mice were anesthetized with 5% isoflurane. Evans blue (50 mg/kg body weight) was given intravenously 10 min before neurogenic irritant application. […] Evans blue was extracted from the tissues by incubation in 400 μL formamide at 37° C. for 48 hr. Evans blue was quantified by measuring the optical density of the formamide extract at 620 nm. Absorbance was normalized to per gram of tissue weight.

TRPV1 = biological target: T4, TRPV1 (Mus musculus, UniProt Q704Y3); test: Whole-cell patch clamp in CHO cells transfected with mouse Trpv1 cDNA; type: cell-based; details: miR-711 10 μM; capsaicin 50 nM
T4 construct: expressed in transfected cells; host or cells: CHO cells (ATCC CRL-9096), plasmid pcDNA3.1-mTrpv1, a gift from Korea University
T4 sequence (Q704Y3 whole entry): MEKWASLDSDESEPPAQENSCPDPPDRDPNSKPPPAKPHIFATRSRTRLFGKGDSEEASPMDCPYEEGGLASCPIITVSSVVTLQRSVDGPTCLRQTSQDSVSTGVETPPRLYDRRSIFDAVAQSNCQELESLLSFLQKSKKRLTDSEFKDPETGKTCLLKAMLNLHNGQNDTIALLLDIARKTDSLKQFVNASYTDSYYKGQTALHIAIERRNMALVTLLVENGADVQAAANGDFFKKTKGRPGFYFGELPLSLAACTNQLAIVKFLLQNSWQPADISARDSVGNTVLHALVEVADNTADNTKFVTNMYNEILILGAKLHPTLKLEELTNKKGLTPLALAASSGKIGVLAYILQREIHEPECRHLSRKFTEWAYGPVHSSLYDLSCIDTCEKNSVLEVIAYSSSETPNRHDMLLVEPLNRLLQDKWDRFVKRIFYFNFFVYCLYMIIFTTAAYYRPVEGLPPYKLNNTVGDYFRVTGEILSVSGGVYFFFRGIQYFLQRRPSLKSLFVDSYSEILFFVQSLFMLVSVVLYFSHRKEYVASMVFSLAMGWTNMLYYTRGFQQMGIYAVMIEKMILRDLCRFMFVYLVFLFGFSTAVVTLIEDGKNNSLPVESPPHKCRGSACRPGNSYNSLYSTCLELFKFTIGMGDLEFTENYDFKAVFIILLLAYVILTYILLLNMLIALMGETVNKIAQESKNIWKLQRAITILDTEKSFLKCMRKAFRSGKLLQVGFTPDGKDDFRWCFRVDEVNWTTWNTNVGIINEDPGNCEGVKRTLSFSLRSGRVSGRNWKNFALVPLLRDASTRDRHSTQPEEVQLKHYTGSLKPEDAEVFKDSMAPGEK
Experimental: as §3
as §1, with “studies. […]” for “studies.”

CTCL mice = test: Mouse CTCL xenograft model of chronic itch; type: in vivo; details: given 20 days after Myla cell inoculation; hsa-miR-711 inhibitor 100 μM, HC030031 200 μM, A967079 50 μM, peptides 2 mM
Experimental: Mouse CTCL Xenograft Model of Chronic Itch. We developed a murine xenograft model of cutaneous T cell lymphoma (CTCL) using immune-deficient mice (NOD.CB17-Prkdcscid, 8-10 weeks old, male). CD4^+ MyLa cell line was purchased from Sigma (Ca #95051032). The cell line was established from a plaque biopsy of a person with mycosis fungoides stage II by inclusion of IL-2 and IL-4 in the culture medium. CTCL was generated via intradermal injection of CD4^+ Myla cells (1×10^5 cells/μl, 100 μL) on the nape of the neck. Tumor growth was assessed for 40 days by measurements of tumor diameters.
as §2
Generation of Myla Stable Cell Line Expressing miR-711 Inhibitor. CD4^+ Myla cells were plated at a density of 2×10^5 cells/mL in 2 mL culture media in 6-well plates. For each well, 20 μL of the MISSION Lenti microRNA Inhibitor (hsa-miR-711) lentivirus (Sigma) with a titer of 2.6×10^7 Tu/mL were added. Cell mixtures were incubated at 37° C. for 48 hr, washed with PBS three times, and re-suspended in fresh culture media, and 24 hr later, 1 μg/mL puromycin was added to the cells to select stably transduced cell populations. We tried to grow and passage the cells as much as necessary (usually 3 days) and maintained selection pressure by keeping 1 μg/mL puromycin in the medium. After 4 weeks, a large number of the cells were killed; the remaining cells retained the expression of the plasmid, which stably integrates into the genome of the targeted cells. These cells were used for inoculation to generate the CTCL model for testing the effects of miR-711 inhibitor on chronic itch and tumor growth.

mice [5] = test: Persistent itch after intradermal adenovirus (AV) overexpression of hsa-miR-711; type: in vivo, mouse; details: 10 days after the AV injection, A-967079 50 μM, hsa-miR-711 inhibitor 100 μM, blocking peptide 2 μM
Experimental: as §2
miRNA Measurement by Quantitative Real-Time RT-PCR (qPCR). Total RNA was isolated from serum of CTCL mice or adenovirus-treated mice using Qiazol Lysis Reagent (QIAGEN) together with miRNeasy Serum/Plasma Kit (Park et al., Neuron 2014, 82, 47-54). All RNA samples were immediately used or kept at −80° C. until further processing. To convert mature miRNA into cDNA, 6 μl of total RNA solution were reverse transcribed using the miScript II RT Kit (including polyadenylation of miRNAs and reverse transcription using an oligo-dT that binds to a universal RT-sequence). Specific miRNA levels were quantified by qPCR using miScript SYBR Green Kit including miScript miRNA assay for hsa-miR-711, hsa-miR21, hsamiR155, and hsa-miR-326, together with the universal RT primer, according to the manufacturer's protocol (CFX96 Real-Time system, Bio-Rad). Relative quantities of miRNAs were calculated using the Ct value after normalization to control miRNAs. Caenorhabditis elegans miRNA-39 (cel-miRNA-39) was included as spiked-in control for extracellular miRNA.

T1 sequence (O75762 whole entry): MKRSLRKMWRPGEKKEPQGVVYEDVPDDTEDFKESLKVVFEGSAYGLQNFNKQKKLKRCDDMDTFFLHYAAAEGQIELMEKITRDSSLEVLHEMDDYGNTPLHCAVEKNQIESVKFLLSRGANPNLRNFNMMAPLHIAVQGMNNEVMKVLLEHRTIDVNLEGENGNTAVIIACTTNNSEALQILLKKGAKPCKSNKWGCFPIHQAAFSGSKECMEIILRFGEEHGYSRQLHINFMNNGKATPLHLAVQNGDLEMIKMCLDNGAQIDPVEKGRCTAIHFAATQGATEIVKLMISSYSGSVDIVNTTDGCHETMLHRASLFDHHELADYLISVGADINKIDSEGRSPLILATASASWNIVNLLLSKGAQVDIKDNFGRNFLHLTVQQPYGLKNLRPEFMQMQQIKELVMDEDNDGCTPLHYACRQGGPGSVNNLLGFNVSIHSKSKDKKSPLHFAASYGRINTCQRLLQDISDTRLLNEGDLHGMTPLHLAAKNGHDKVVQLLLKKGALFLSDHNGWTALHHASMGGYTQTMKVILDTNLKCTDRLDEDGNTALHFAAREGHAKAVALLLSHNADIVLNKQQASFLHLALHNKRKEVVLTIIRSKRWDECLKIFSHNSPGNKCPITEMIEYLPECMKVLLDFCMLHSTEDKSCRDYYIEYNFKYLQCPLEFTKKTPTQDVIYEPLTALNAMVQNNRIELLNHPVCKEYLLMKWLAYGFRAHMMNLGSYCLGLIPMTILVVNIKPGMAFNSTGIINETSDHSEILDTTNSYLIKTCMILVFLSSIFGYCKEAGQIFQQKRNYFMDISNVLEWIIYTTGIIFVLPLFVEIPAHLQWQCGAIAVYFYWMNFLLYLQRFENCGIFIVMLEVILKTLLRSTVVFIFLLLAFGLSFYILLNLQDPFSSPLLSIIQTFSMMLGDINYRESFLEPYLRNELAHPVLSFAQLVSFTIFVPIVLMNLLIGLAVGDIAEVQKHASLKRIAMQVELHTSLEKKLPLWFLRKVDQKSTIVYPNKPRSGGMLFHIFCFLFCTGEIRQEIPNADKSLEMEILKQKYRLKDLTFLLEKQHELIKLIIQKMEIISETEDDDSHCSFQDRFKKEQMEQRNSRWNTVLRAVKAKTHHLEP

Compound: NH2-FRNELAAAVATFGQL-COOH (H-FRNELAAAVATFGQL-OH) [mutated peptide]
- inhibition of miR-711-induced TRPA1 inward currents (hTRPA1 [1]): nor did this peptide inhibit
- disruption of the miR-711/TRPA1 interaction (hTRPA1 [2]): Neither did this mutated peptide block
- effect on miR-711-induced pruritus (mice [3]): nor did this peptide inhibit

Compound: C=C(C)[C@@H]1CCC(C)=C[C@H]1c1c(O)cc(CCCCC)cc1O [cannabidiol]
- inward currents (TRPV2): inward currents induced

Compound: CC(C)C[C@H](NC(=O)c1cc2ccccc2s1)C(=O)N1CCN(C(=O)[C@H](CO)NS(=O)(=O)c2ccc(Cl)cc2Cl)CC1 [GSK1016790A]
- inward currents (TRPV4): inward currents induced

Compound: COc1cc(CNC(=O)CCCC/C=C/C(C)C)ccc1O [capsaicin]
- neurogenic inflammation in hind paws (Evans blue test) (mice [4]): elicited robust neurogenic inflammation
- inward currents (TRPV1): inward currents induced

Compound: miR-711 inhibitor: hsa-miR-711 inhibitor with a complementary sequence to hsa-miR-711: cuuacgucucucccuggguccc (SEQ ID NO: 22) (CUUACGUCUCUCCCUGGGUCCC; listed as RNA, chemistry not given here)
- effect on CTCL-evoked chronic itch (CTCL mice): reduced chronic pruritus
- effect on hsa-miR-711 AV-induced persistent itch (mice [5]): Inhibition
